Assay results: ChEMBL document CHEMBL4334434, “Discovery of napabucasin derivatives for the treatment of tuberculosis” (2019)
Values after ≈ are worked out from the molar mass of the structure shown.

Key:
Format in all cases: functional
[1] = system: Mycobacterium tuberculosis; experiment: Antimycobacterial activity against Mycobacterium tuberculosis H37Ra UAlRa incubated for 6 days by luminescence based assay; settings: 144 h
[2] = system: Mycobacterium tuberculosis; experiment: Antimycobacterial activity against Mycobacterium tuberculosis K4
[3] = system: Mycobacterium tuberculosis; experiment: Antimycobacterial activity against Mycobacterium tuberculosis K16
[4] = system: Mycobacterium tuberculosis; experiment: Antimycobacterial activity against Mycobacterium tuberculosis H37Rv
[5] = system: Mycobacterium tuberculosis; experiment: Antimycobacterial activity against Mycobacterium tuberculosis K2
[6] = system: Mycobacterium tuberculosis; experiment: Antimycobacterial activity against Mycobacterium tuberculosis K12
[7] = system: Mycobacterium tuberculosis; experiment: Antimycobacterial activity against Mycobacterium tuberculosis K18
[8] = system: Mycobacterium tuberculosis; experiment: Antimycobacterial activity against Mycobacterium tuberculosis K5

CC(O)c1cc2c(o1)C(=O)c1ccccc1C2=O (configuration not stated)
MIC [1]: 41.2 µM (≈ 9.98 µg/mL)

CC(c1cc2c(o1)C(=O)c1ccccc1C2=O)N1CCCCC1 (configuration not stated)
MIC [1]: 32.3 µM (≈ 9.99 µg/mL)

CC(c1cc2c(o1)C(=O)c1ccccc1C2=O)N1CCOCC1 (configuration not stated)
MIC [1]: 32.1 µM (≈ 9.99 µg/mL)

CC(Br)c1cc2c(o1)C(=O)c1ccccc1C2=O (configuration not stated)
MIC [1]: 16.5 µM (≈ 5.03 µg/mL)

COC(=O)CC1CCN(C(=O)c2cc3c(o2)C(=O)c2ccccc2C3=O)CC1
MIC [1]: 3.28 µM (≈ 1.25 µg/mL)

O=C(NCCN1CCOCC1)c1cc2c(o1)C(=O)c1ccccc1C2=O
MIC [1]: 7.1 µM (≈ 2.52 µg/mL)

O=C(NC1CCCCC1)c1cc2c(o1)C(=O)c1ccccc1C2=O
MIC [1]: 7.7 µM (≈ 2.49 µg/mL)

CCN1CCN(C(=O)c2cc3c(o2)C(=O)c2ccccc2C3=O)CC1
MIC [1]: 7.4 µM (≈ 2.5 µg/mL)

O=C1c2ccccc2C(=O)c2oc(C(=O)N3CCC(c4cccc(Cl)c4)CC3)cc21
MIC [1]: ≥ 23.9 µM

O=C(NCCc1ccccc1)c1cc2c(o1)C(=O)c1ccccc1C2=O
MIC [1]: ≥ 28.9 µM

O=C(NCCc1ccccc1F)c1cc2c(o1)C(=O)c1ccccc1C2=O
MIC [2]: 12.5 µg/mL (≈ 34.4 µM) | MIC [1]: 1.7 µM (≈ 0.618 µg/mL) | MIC [3]: 2.5 µg/mL (≈ 6.88 µM) | MIC [4]: 0.5 µg/mL (≈ 1.38 µM) | MIC [5]: 0.5 µg/mL (≈ 1.38 µM) | MIC [6]: 2.5 µg/mL (≈ 6.88 µM) | MIC [7]: 2.5 µg/mL (≈ 6.88 µM) | MIC [8]: 12.5 µg/mL (≈ 34.4 µM)

O=C(NCCc1ccc(F)cc1)c1cc2c(o1)C(=O)c1ccccc1C2=O
MIC [1]: 1.7 µM (≈ 0.618 µg/mL)

O=C1c2ccccc2C(=O)c2oc(C(=O)N3CCN(c4cccc(C(F)(F)F)c4)CC3)cc21
MIC [2]: 25 µg/mL (≈ 55 µM) | MIC [1]: 2.7 µM (≈ 1.23 µg/mL) | MIC [3]: 1 µg/mL (≈ 2.2 µM) | MIC [4]: 1 µg/mL (≈ 2.2 µM) | MIC [5]: 0.5 µg/mL (≈ 1.1 µM) | MIC [6]: 1 µg/mL (≈ 2.2 µM) | MIC [7]: 2.5 µg/mL (≈ 5.5 µM) | MIC [8]: 25 µg/mL (≈ 55 µM)

O=C1c2ccccc2C(=O)c2oc(C(=O)N3CCCCC3)cc21
MIC [2]: 12.5 µg/mL (≈ 40.4 µM) | MIC [1]: 2 µM (≈ 0.619 µg/mL) | MIC [3]: 1 µg/mL (≈ 3.23 µM) | MIC [4]: 0.5 µg/mL (≈ 1.62 µM) | MIC [5]: 0.5 µg/mL (≈ 1.62 µM) | MIC [6]: 1 µg/mL (≈ 3.23 µM) | MIC [7]: 2.5 µg/mL (≈ 8.08 µM) | MIC [8]: 12.5 µg/mL (≈ 40.4 µM)

O=C1c2ccccc2C(=O)c2oc(C(=O)N3CCC(c4ccc(F)cc4)CC3)cc21
MIC [1]: ≥ 24.9 µM

O=C1c2ccccc2C(=O)c2oc(C(=O)N3CCOCC3)cc21
MIC [1]: 4 µM (≈ 1.25 µg/mL)

O=C1c2ccccc2C(=O)c2oc(C(=O)N3CCCC3)cc21
MIC [1]: 4.2 µM (≈ 1.24 µg/mL)

O=C(NCc1ccccc1F)c1cc2c(o1)C(=O)c1ccccc1C2=O
MIC [1]: 1.8 µM (≈ 0.629 µg/mL)

O=C(/C=C/c1ccccc1)c1cc2c(o1)C(=O)c1ccccc1C2=O
MIC [1]: ≥ 30.4 µM

O=C(NCCc1ccc(Cl)cc1)c1cc2c(o1)C(=O)c1ccccc1C2=O
MIC [1]: 6.6 µM (≈ 2.51 µg/mL)

O=C(NCc1cccc(F)c1)c1cc2c(o1)C(=O)c1ccccc1C2=O
MIC [1]: 0.9 µM (≈ 0.314 µg/mL)

CN1CCN(C(=O)c2cc3c(o2)C(=O)c2ccccc2C3=O)CC1
MIC [1]: 7.7 µM (≈ 2.5 µg/mL)

O=C1c2ccccc2C(=O)c2oc(C(=O)N3CCSCC3)cc21
MIC [2]: 2 µg/mL (≈ 6.11 µM) | MIC [1]: 1.9 µM (≈ 0.622 µg/mL) | MIC [3]: 0.5 µg/mL (≈ 1.53 µM) | MIC [4]: 0.5 µg/mL (≈ 1.53 µM) | MIC [5]: 0.25 µg/mL (≈ 0.764 µM) | MIC [6]: 0.5 µg/mL (≈ 1.53 µM) | MIC [7]: 0.5 µg/mL (≈ 1.53 µM) | MIC [8]: 4 µg/mL (≈ 12.2 µM)

O=C(/C=C/c1cccs1)c1cc2c(o1)C(=O)c1ccccc1C2=O
MIC [1]: 29.9 µM (≈ 10 µg/mL)

O=C1CCN(C(=O)c2cc3c(o2)C(=O)c2ccccc2C3=O)CC1
MIC [1]: 7.7 µM (≈ 2.49 µg/mL)

Cn1cccc1/C=C/C(=O)c1cc2c(o1)C(=O)c1ccccc1C2=O
MIC [1]: ≥ 30.4 µM

O=C(NCCN1CCCCC1)c1cc2c(o1)C(=O)c1ccccc1C2=O
MIC [1]: 3.6 µM (≈ 1.27 µg/mL)

O=C(NCCc1cccc(F)c1)c1cc2c(o1)C(=O)c1ccccc1C2=O
MIC [1]: 0.9 µM (≈ 0.327 µg/mL)

CC1(C)CCC(NC(=O)c2cc3c(o2)C(=O)c2ccccc2C3=O)CC1
MIC [2]: 25 µg/mL (≈ 71.1 µM) | MIC [1]: 3.56 µM (≈ 1.25 µg/mL) | MIC [3]: 2.5 µg/mL (≈ 7.11 µM) | MIC [4]: 0.5 µg/mL (≈ 1.42 µM) | MIC [5]: 0.25 µg/mL (≈ 0.711 µM) | MIC [6]: 2.5 µg/mL (≈ 7.11 µM) | MIC [7]: 2.5 µg/mL (≈ 7.11 µM) | MIC [8]: 25 µg/mL (≈ 71.1 µM)

O=C(NCc1ccc(F)cc1)c1cc2c(o1)C(=O)c1ccccc1C2=O
MIC [1]: 1.8 µM (≈ 0.629 µg/mL)

O=C(/C=C/c1ccc(O)cc1)c1cc2c(o1)C(=O)c1ccccc1C2=O
MIC [1]: ≥ 29.1 µM

CC(=O)c1cc2c(o1)C(=O)c1ccccc1C2=O [NAPABUCASIN]
MIC [1]: 10.4 µM (≈ 2.5 µg/mL)
